Measurements: ChEMBL document CHEMBL4118288, “Antiplasmodial activity of hydroxyethylamine analogs: Synthesis, biological activity and structure activity relationship of plasmepsin inhibitors” (Bioorg Med Chem, 2018)

Columns and labels:
Plasmodium falciparum = test: Antiplasmodial activity against chloroquine-susceptible blood forms of Plasmodium falciparum 3D7 infected in human erythrocytes measured after 48 hrs by SYBR green1 staining based fluorescence assay; type: functional, organism-based; details: 3D7, 48 h
Vero = test: Cytotoxicity against African green monkey Vero cells after 48 hrs by MTT assay; type: cell-based; details: Chlorocebus sabaeus
[1] = Therapeutic index, ratio of IC50 for human HepG2 cells to IC50 for chloroquine-susceptible blood forms of Plasmodium falciparum 3D7 infected in human erythrocytes; type: toxicity, cell-based; details: read-out: Ratio IC50
[2] = Therapeutic index, ratio of IC50 for African green monkey Vero cells to IC50 for chloroquine-susceptible blood forms of Plasmodium falciparum 3D7 infected in human erythrocytes; type: toxicity, cell-based; details: read-out: Ratio IC50
HepG2 = test: Cytotoxicity against human HepG2 cells after 48 hrs by MTT assay; type: cell-based; details: HepG2, 48 h
[3] = target: Plasmepsin II (Plasmodium falciparum) (UniProt P46925); test: (§1) Inhibition of Plasmodium falciparum Plm2 using synthetic substrate pretreated for 5 mins followed by substrate addition measured immediately by spectrophotometric method
Plasmepsin II (Plasmodium falciparum), sequence (P46925 125-453 limits assumed): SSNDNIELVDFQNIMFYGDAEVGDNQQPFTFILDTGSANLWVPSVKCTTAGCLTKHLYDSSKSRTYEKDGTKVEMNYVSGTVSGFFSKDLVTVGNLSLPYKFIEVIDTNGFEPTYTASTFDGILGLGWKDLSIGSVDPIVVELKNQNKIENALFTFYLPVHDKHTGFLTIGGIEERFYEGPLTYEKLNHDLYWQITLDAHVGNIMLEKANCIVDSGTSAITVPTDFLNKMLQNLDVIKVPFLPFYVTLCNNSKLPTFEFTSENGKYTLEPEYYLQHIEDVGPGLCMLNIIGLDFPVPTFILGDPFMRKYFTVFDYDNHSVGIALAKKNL

Plasmepsin 4 = Plasmepsin 4 (Plasmodium falciparum, UniProt Q17SB2); test: (§2) Inhibition of Plasmodium falciparum Plm4 using synthetic substrate pretreated for 5 mins followed by substrate addition measured immediately by spectrophotometric method
Plasmepsin 4, sequence (Q17SB2 whole entry): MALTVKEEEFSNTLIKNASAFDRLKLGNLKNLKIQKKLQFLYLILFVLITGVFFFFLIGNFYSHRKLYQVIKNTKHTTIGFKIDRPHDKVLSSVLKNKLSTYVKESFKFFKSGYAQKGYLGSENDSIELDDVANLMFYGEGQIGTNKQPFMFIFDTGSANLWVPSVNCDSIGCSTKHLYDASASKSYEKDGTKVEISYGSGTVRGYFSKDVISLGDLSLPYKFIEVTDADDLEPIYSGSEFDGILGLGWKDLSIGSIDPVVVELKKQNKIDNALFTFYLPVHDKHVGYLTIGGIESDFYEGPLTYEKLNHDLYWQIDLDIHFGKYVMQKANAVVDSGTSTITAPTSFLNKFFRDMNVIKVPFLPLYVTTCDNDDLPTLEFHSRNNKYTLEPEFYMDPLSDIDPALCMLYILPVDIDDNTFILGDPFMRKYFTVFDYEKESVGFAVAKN

[4] = target: Plasmepsin 4 (Plasmodium falciparum) (UniProt Q17SB2); test: as §2
Plasmepsin 4 (Plasmodium falciparum), sequence (Q17SB2 1-448): as the sequence (Q17SB2 whole entry) above

[5] = target: Plasmepsin II (Plasmodium falciparum) (UniProt P46925); test: Inhibition of Plasmodium falciparum Plm2 at 10 uM using synthetic substrate pretreated for 5 mins followed by substrate addition measured immediately by spectrophotometric method relative to control
[6] = target: Plasmepsin 4 (Plasmodium falciparum) (UniProt Q17SB2); test: Inhibition of Plasmodium falciparum Plm4 at 10 uM using synthetic substrate pretreated for 5 mins followed by substrate addition measured immediately by spectrophotometric method relative to control
Plasmepsin II = Plasmepsin II (Plasmodium falciparum, UniProt P46925); test: as §1
Plasmepsin II, sequence (P46925 whole entry): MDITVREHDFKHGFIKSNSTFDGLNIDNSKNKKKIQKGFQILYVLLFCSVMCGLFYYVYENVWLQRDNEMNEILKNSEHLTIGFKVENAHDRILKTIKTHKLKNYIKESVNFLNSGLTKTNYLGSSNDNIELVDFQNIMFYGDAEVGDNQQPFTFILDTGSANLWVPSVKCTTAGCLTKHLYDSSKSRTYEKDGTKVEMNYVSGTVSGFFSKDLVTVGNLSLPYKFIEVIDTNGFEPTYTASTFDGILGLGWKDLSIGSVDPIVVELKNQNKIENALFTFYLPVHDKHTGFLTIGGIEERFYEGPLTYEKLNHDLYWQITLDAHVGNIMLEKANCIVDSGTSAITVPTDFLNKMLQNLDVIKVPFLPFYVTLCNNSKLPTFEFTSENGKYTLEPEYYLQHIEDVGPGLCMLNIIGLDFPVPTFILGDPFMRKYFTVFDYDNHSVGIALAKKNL

`N[C@@H](Cc1ccccc1)[C@H](O)CN1CCN(C[C@@H](O)[C@@H](N)Cc2ccccc2)CC1` gave an IC50 (Plasmodium falciparum) of 3.47 µM.
Molecule `CC[C@H](C)[C@H](N)C(=O)N[C@@H](Cc1ccccc1)[C@H](O)CN1CCN(C[C@@H](O)[C@H](Cc2ccccc2)NC(=O)[C@@H](N)[C@@H](C)CC)CC1` has an IC50 (Vero) greater than 156 µM, a selectivity ratio [1] greater than 10 and a selectivity ratio [2] greater than 10. The IC50 (Plasmodium falciparum) was 1.35 µM and the IC50 (HepG2) was 125 µM.
For `Cc1ccc2c(c1)C(=O)N([C@@H](C)C(=O)NC(Cc1ccccc1)C(O)CN1CCN(C[C@@H](O)[C@H](Cc3ccccc3)NC(=O)[C@H](C)N3C(=O)c4ccc(C)cc4C3=O)CC1)C2=O` (single isomer, unassigned), the IC50 (Plasmodium falciparum) was 19 µM.
Work on `CC(C)[C@H](NC(=O)OC(C)(C)C)C(=O)N[C@@H](Cc1ccccc1)[C@H](O)CN1CCN(C[C@H](O)[C@@H](Cc2ccccc2)NC(=O)[C@@H](NC(=O)OC(C)(C)C)C(C)C)CC1` yielded an IC50 (Plasmodium falciparum) of 4.38 µM.
For `CC[C@H](C)[C@@H](C(=O)N[C@@H](Cc1ccccc1)[C@H](O)CN1CCN(C[C@@H](O)[C@H](Cc2ccccc2)NC(=O)[C@H]([C@@H](C)CC)N2C(=O)c3ccc(C)cc3C2=O)CC1)N1C(=O)c2ccc(C)cc2C1=O`, the inhibition [3] was “Dose-dependent effect”, the Ki (Plasmepsin 4) was 0.841 µM and the inhibition [4] was “Dose-dependent effect”. The inhibition [5] was greater than 50%, the IC50 (Plasmodium falciparum) was 3.11 µM and the inhibition [6] was greater than 50%.
With `C[C@@H](C(=O)NC(Cc1ccccc1)C(O)CN1CCN(C[C@@H](O)[C@H](Cc2ccccc2)NC(=O)[C@H](C)N2C(=O)c3ccccc3C2=O)CC1)N1C(=O)c2ccccc2C1=O` (single isomer, unassigned) the IC50 (Plasmodium falciparum) was 7.6 µM.
`C[C@H](NC(=O)OC(C)(C)C)C(=O)N[C@@H](Cc1ccccc1)[C@H](O)CN1CCN(C[C@H](O)[C@@H](Cc2ccccc2)NC(=O)[C@H](C)NC(=O)OC(C)(C)C)CC1` showed an IC50 (Plasmodium falciparum) of 8.28 µM.
Work on `C[C@H](N)C(=O)NC(Cc1ccccc1)C(O)CN1CCN(C[C@@H](O)[C@H](Cc2ccccc2)NC(=O)[C@H](C)N)CC1` (single isomer, unassigned) yielded an IC50 (Plasmodium falciparum) of 6.98 µM.
`O=C(CN1C(=O)c2ccccc2C1=O)NC(Cc1ccccc1)C(O)CN1CCN(C[C@@H](O)[C@H](Cc2ccccc2)NC(=O)CN2C(=O)c3ccccc3C2=O)CC1` (single isomer, unassigned) showed an IC50 (Plasmodium falciparum) of 20.3 µM.
With `CC(C)(C)OC(=O)NCC(=O)NC(Cc1ccccc1)C(O)CN1CCN(C[C@@H](O)[C@H](Cc2ccccc2)NC(=O)CNC(=O)OC(C)(C)C)CC1` (single isomer, unassigned) the IC50 (Plasmodium falciparum) was 8.6 µM.
With `Cc1ccc2c(c1)C(=O)N(CC(=O)N[C@@H](Cc1ccccc1)[C@H](O)CN1CCN(C[C@H](O)[C@@H](Cc3ccccc3)NC(=O)CN3C(=O)c4ccc(C)cc4C3=O)CC1)C2=O` the inhibition [3] was “Dose-dependent effect”, the Ki (Plasmepsin 4) was 3.35 µM and the inhibition [4] was “Dose-dependent effect”. It also gave an inhibition [5] greater than 50%, an IC50 (Plasmodium falciparum) of 10.8 µM and an inhibition [6] greater than 50%.
For `CC(C)[C@H](N)C(=O)NC(Cc1ccccc1)C(O)CN1CCN(C[C@@H](O)[C@H](Cc2ccccc2)NC(=O)[C@@H](N)C(C)C)CC1` (single isomer, unassigned), the IC50 (Plasmodium falciparum) was 2.72 µM.
In the case of `CC[C@H](C)[C@H](NC(=O)OC(C)(C)C)C(=O)N[C@@H](Cc1ccccc1)[C@H](O)CN1CCN(C[C@@H](O)[C@H](Cc2ccccc2)NC(=O)[C@@H](NC(=O)OC(C)(C)C)[C@@H](C)CC)CC1`, the IC50 (Plasmodium falciparum) is reported as 1.84 µM.
For `Cc1ccc2c(c1)C(=O)N([C@@H](CC(C)C)C(=O)NC(Cc1ccccc1)C(O)CN1CCN(C[C@@H](O)[C@H](Cc3ccccc3)NC(=O)[C@H](CC(C)C)N3C(=O)c4ccc(C)cc4C3=O)CC1)C2=O` (single isomer, unassigned), the IC50 (Vero) was 60 µM, the inhibition [3] was “Dose-dependent effect” and the Ki (Plasmepsin II) was 1.92 µM. For the same molecule, the Ki (Plasmepsin 4) was 1.98 µM, the inhibition [4] was “Dose-dependent effect” and the inhibition [5] was greater than 50%. It also gave a selectivity ratio [1] greater than 10, a selectivity ratio [2] greater than 10 and an IC50 (Plasmodium falciparum) of 2.27 µM. For the same molecule, the IC50 (HepG2) was 27 µM and the inhibition [6] was greater than 50%.
For `Cc1ccc2c(c1)C(=O)N([C@H](C(=O)NC(Cc1ccccc1)C(O)CN1CCN(C[C@@H](O)[C@H](Cc3ccccc3)NC(=O)[C@H](C(C)C)N3C(=O)c4ccc(C)cc4C3=O)CC1)C(C)C)C2=O` (single isomer, unassigned), the IC50 (Plasmodium falciparum) was 2.26 µM.
Work on `C[C@@H]1CC[C@H]2[C@@H](C)C(=O)O[C@@H]3O[C@@]4(C)CC[C@@H]1[C@]32OO4` [ARTEMISININ] yielded an IC50 (Plasmodium falciparum) of 0.074 µM.
